Results taken from article PMC7156458, “Synthetic biology based construction of biological activity-related library of fungal decalin-containing diterpenoid pyrones” (Nature Communications, 2020).
Where two headings read alike, the source gives them in different places.

How the values were obtained:
l(2)mbn cells = test: cytotoxicity in Drosophila l(2)mbn cells; assay type: cell-based; settings: for Luminescence Raw2: replicate 2; for Luminescence Raw1: replicate 1; for IC50: Drosophila melanogaster, cytotoxicity
Description: (§1) We screened the DDPs on the Drosophila assay system for cytotoxicity, inhibitory activity of innate immune signalling and insecticidal activity. The cytotoxicity of the DDPs was evaluated using two cell lines, embryonic macrophage-derived DL1 cells[58]–[60] and larval blood cell-derived l(2)mbn cells, and their IC50 values are listed in Supplementary Table 23.

MCF-7 cells = test: cell cytotoxic effects against MCF-7 cells (72 h), A490; assay type: cell-based, human; settings: MCF-7, 72 h; for viability at 0.1 µM / viability at 1 µM / viability at 10 µM: Homo sapiens, MCF7, 72 h, read-out: A490 (control =1) ave
Description: !" ' ' '! !" ' ' '! !" ' ' '!!" ' ' '!!" ' ' '!!" ' ' '!!" ' ' '!!" ' ' '! !" ' ' '! !" ' ' '! !" ' ' '! !"#$
( % ) * '! '' '# '+ '$ '( '%
! " # $ %& %% %' %( %) %! %"
!" ' ' '! !" ' ' '!!" ' ' '!!" ' ' '!!" ' ' '!!" ' ' '!!" ' ' '! !" ' ' '! !" ' ' '! !" ' ' '! !" ' ' '! […]
Supplementary Fig. 46. a, Cell cytotoxic effects of DDPs against MCF-7 cells (72 h).
dose dependent cytotoxic effects against MCF-7 cells were tested their inhibitory activity against mammosphere
formation. Compound in blue (16) was also performed mammosphere assay as negative control. Data represent
mean±s.d. from three independent replicate experiments. […]
Source data underlying Supplementary Figure 46a are provided in a Source Data file. […]

DL1 cells = test: cytotoxicity in Drosophila DL1 cells; assay type: cell-based; settings: for IC50: Drosophila melanogaster
Description: as §1

[1] = cytotoxicity in Drosophila DL1 cells; assay type: cell-based; settings: Drosophila, DL1 cells (embryonic macrophage-derived), DL1 cells
Description: as §1

[2] = cytotoxicity in Drosophila l(2)mbn cells; assay type: cell-based; settings: Drosophila, l(2)mbn cells (larval blood cell-derived)
Description: as §1

[3] = 0.1 µM (DMSO 0.002%), control 1.064
[4] = 1 µM (DMSO 0.02%), control 1.104
[5] = 10 µM (DMSO 0.2%), control 1.049
[6] = DL1 cells, 0.04 µM, replicate 1
[7] = DL1 cells, 0.04 µM, replicate 2
[8] = DL1 cells, cytotoxicity, average of two replicates, read-out: IC50 Average
[9] = DL1 cells, cytotoxicity, replicate 1, read-out: IC50 (1)
[10] = DL1 cells, cytotoxicity, replicate 2, read-out: IC50 (2)
[11] = replicate 1, relative to DMSO 1%, read-out: % viability, viability 1
[12] = replicate 2, relative to DMSO 1%, read-out: % viability, viability 2

C=C1CC[C@@H]2[C@](C)(CC[C@H]3O[C@H](C=C(C)C)C[C@@]23C)[C@@H]1Cc1c(OC)oc(CO)c(C(=O)OC)c1=O [Compound 21]
Luminescence Raw2 (l(2)mbn cells; 0.2 µM): 2750409 | Luminescence Raw1 (l(2)mbn cells; 0.4 µM): 2719029 | Luminescence Raw2 (l(2)mbn cells; 0.4 µM): 2813892 | Luminescence Raw1 (l(2)mbn cells; 0.8 µM): 2929318 | Luminescence Raw2 (l(2)mbn cells; 0.8 µM): 2922825 | Luminescence Raw1 (l(2)mbn cells; 1 µM): 2523535 | IC50 (l(2)mbn cells; average of two replicates, read-out: IC50 Average): 2660 nM | IC50 (l(2)mbn cells; average±SEM, read-out: IC50): 2660 ± 220 nM | IC50 (l(2)mbn cells; replicate 1, read-out: IC50 (1)): 2440 nM | IC50 (l(2)mbn cells; replicate 2, read-out: IC50 (2)): 2880 nM | viability at 0.1 µM (MCF-7 cells; 0.1 µM (DMSO 0.002%)): 114% | viability at 1 µM (MCF-7 cells; 1 µM (DMSO 0.02%)): 118% | viability at 10 µM (MCF-7 cells; 10 µM (DMSO 0.2%)): 103% | A490 ave (MCF-7 cells; [3]): 1.213 | A490 ave (MCF-7 cells; [4]): 1.298 | A490 ave (MCF-7 cells; [5]): 1.083 | Luminescence Raw1 (DL1 cells; [6]): 237970 | Luminescence Raw2 (DL1 cells; [7]): 362006 | Luminescence Raw1 (DL1 cells; DL1 cells, 0.2 µM, replicate 1): 165136 | Luminescence Raw2 (DL1 cells; DL1 cells, 0.2 µM, replicate 2): 171986 | Luminescence Raw1 (DL1 cells; DL1 cells, 1 µM, replicate 1): 144944 | Luminescence Raw2 (DL1 cells; DL1 cells, 1 µM, replicate 2): 98793 | Luminescence Raw1 (DL1 cells; DL1 cells, 4 µM, replicate 1): 143141 | Luminescence Raw2 (DL1 cells; DL1 cells, 4 µM, replicate 2): 140618 | Luminescence Raw1 (DL1 cells; DL1 cells, 10 µM, replicate 1): 144223 | Luminescence Raw2 (DL1 cells; DL1 cells, 10 µM, replicate 2): 161530 | Luminescence Raw1 (DL1 cells; DL1 cells, 20 µM, replicate 1): 95187 | Luminescence Raw2 (DL1 cells; DL1 cells, 20 µM, replicate 2): 124032 | IC50 (DL1 cells; [8]): < 40 nM | IC50 (DL1 cells; [9]): < 40 nM | IC50 (DL1 cells; [10]): < 40 nM | IC50 (DL1 cells; DL-1 cell line, cell growth, read-out: IC50): < 40 nM | viability at 0.04 µM [1, 11]: 5.78% | viability at 0.04 µM [1, 12]: 8.79% | viability at 0.2 µM [1, 11]: 4.01% | viability at 0.2 µM [1, 12]: 4.17% | viability at 1 µM [1, 11]: 3.52% | viability at 1 µM [1, 12]: 2.4% | viability at 4 µM [1, 11]: 3.47% | viability at 4 µM [1, 12]: 3.41% | viability at 10 µM [1, 11]: 3.5% | viability at 10 µM [1, 12]: 3.92% | viability at 20 µM [1, 11]: 2.31% | viability at 20 µM [1, 12]: 3.01%

C=C1CCC2C(C)(CC(=O)C=C(C)C)C(O)CCC2(C)C1Cc1c(OC)oc(C)c(C)c1=O (stereo not shown) [Compound 25]
Luminescence Raw1 (l(2)mbn cells; 0.04 µM): 3193720 | Luminescence Raw2 (l(2)mbn cells; 0.04 µM): 3243139 | Luminescence Raw1 (l(2)mbn cells; 0.2 µM): 3343782 | Luminescence Raw2 (l(2)mbn cells; 0.2 µM): 3450197 | Luminescence Raw1 (l(2)mbn cells; 1 µM): 3097409 | Luminescence Raw2 (l(2)mbn cells; 1 µM): 3603150 | Luminescence Raw1 (l(2)mbn cells; 4 µM): 3528838 | Luminescence Raw2 (l(2)mbn cells; 4 µM): 3786770 | Luminescence Raw1 (l(2)mbn cells; 10 µM): 3209953 | Luminescence Raw2 (l(2)mbn cells; 10 µM): 3480138 | Luminescence Raw1 (l(2)mbn cells; 20 µM): 2234271 | Luminescence Raw2 (l(2)mbn cells; 20 µM): 2495041 | IC50 (l(2)mbn cells; average±SEM, read-out: IC50): > 20000 nM | viability at 0.04 µM [2, 11]: 124% | viability at 0.04 µM [2, 12]: 126% | viability at 0.2 µM [2, 11]: 130% | viability at 0.2 µM [2, 12]: 134% | viability at 1 µM [2, 11]: 121% | viability at 1 µM [2, 12]: 140% | viability at 4 µM [2, 11]: 137% | viability at 4 µM [2, 12]: 148% | viability at 10 µM [2, 11]: 125% | viability at 10 µM [2, 12]: 136% | viability at 20 µM [2, 11]: 87.1% | viability at 20 µM [2, 12]: 97.2% | viability at 0.1 µM (MCF-7 cells; 0.1 µM (DMSO 0.002%)): 78.9% | viability at 1 µM (MCF-7 cells; 1 µM (DMSO 0.02%)): 103% | viability at 10 µM (MCF-7 cells; 10 µM (DMSO 0.2%)): 112% | A490 ave (MCF-7 cells; [3]): 0.839 | A490 ave (MCF-7 cells; [4]): 1.141 | A490 ave (MCF-7 cells; [5]): 1.171 | Luminescence Raw1 (DL1 cells; [6]): 2772839 | Luminescence Raw2 (DL1 cells; [7]): 2800252 | Luminescence Raw1 (DL1 cells; DL1 cells, 0.2 µM, replicate 1): 2673287 | Luminescence Raw2 (DL1 cells; DL1 cells, 0.2 µM, replicate 2): 2657777 | Luminescence Raw1 (DL1 cells; DL1 cells, 1 µM, replicate 1): 2635775 | Luminescence Raw2 (DL1 cells; DL1 cells, 1 µM, replicate 2): 2736769 | Luminescence Raw1 (DL1 cells; DL1 cells, 4 µM, replicate 1): 2684468 | Luminescence Raw2 (DL1 cells; DL1 cells, 4 µM, replicate 2): 2551374 | Luminescence Raw1 (DL1 cells; DL1 cells, 10 µM, replicate 1): 2257781 | Luminescence Raw2 (DL1 cells; DL1 cells, 10 µM, replicate 2): 2619904 | Luminescence Raw1 (DL1 cells; DL1 cells, 20 µM, replicate 1): 396244 | Luminescence Raw2 (DL1 cells; DL1 cells, 20 µM, replicate 2): 560668 | IC50 (DL1 cells; [8]): 17200 nM | IC50 (DL1 cells; DL1 cells, cytotoxicity, average±SEM, read-out: IC50): 17200 ± 2060 nM | IC50 (DL1 cells; [9]): 15100 nM | IC50 (DL1 cells; [10]): 19200 nM | viability at 0.04 µM [1, 11]: 135% | viability at 0.04 µM [1, 12]: 136% | viability at 0.2 µM [1, 11]: 130% | viability at 0.2 µM [1, 12]: 129% | viability at 1 µM [1, 11]: 128% | viability at 1 µM [1, 12]: 133% | viability at 4 µM [1, 11]: 130% | viability at 4 µM [1, 12]: 124% | viability at 10 µM [1, 11]: 110% | viability at 10 µM [1, 12]: 127% | viability at 20 µM [1, 11]: 19.2% | viability at 20 µM [1, 12]: 27.2%
